Patent US20230126893A1, “[(1,4,5-TRISUBSTITUTED-1H-PYRAZOL-3-YL)SULFANYL]ACETIC ACID DERIVATIVES, SALTS THEREOF, AND USE THEREOF AS ACTIVE HERBICIDAL INGREDIENTS” (BAYER AKTIENGESELLSCHAFT, priority 2020, published 2023)

Columns and labels:
Type in all cases: in vivo
Alopecurus myosuroides [1] = assay: Pre-emergence herbicidal effect against ALOMY; settings: 1280 g/ha, visual score after 3 weeks, 100% = plants have died, 0% = like control plants
Source text: (§1) 1. Pre-emergence herbicidal effect and crop plant compatibility Seeds of monocotyledonous and dicotyledonous weed plants and crop plants are laid out in sandy loam soil in wood-fibre pots and covered with soil. The compounds of the invention, formulated in the form of wettable powders (WP) or as emulsion concentrates (EC), are then applied to the surface of the covering soil as aqueous suspension or emulsion at a water application rate equating to 600 to 800 L/ha with addition of 0.2% wetting agent. After the treatment, the pots are placed in a greenhouse and kept under good growth conditions for the trial plants. The damage to the test plants is scored visually after a test period of 3 weeks by comparison with untreated controls (herbicidal activity in percent (%): 100% activity=the plants have died, 0% activity=like control plants). [table]

Digitaria sanguinalis [2] = assay: Pre-emergence herbicidal effect against DIGSA; settings: 1280 g/ha, visual score after 3 weeks, 100% = plants have died, 0% = like control plants
Source text: as §1

Echinochloa crus-galli [3] = assay: Pre-emergence herbicidal effect against ECHCG; settings: 1280 g/ha, visual score after 3 weeks, 100% = plants have died, 0% = like control plants
Source text: as §1

Lolium rigidum = assay: Pre-emergence herbicidal effect against LOLRI; settings: 1280 g/ha, visual score after 3 weeks, 100% = plants have died, 0% = like control plants
Source text: as §1

Poa annua [4] = assay: Pre-emergence herbicidal effect against POAAN; settings: 1280 g/ha, visual score after 3 weeks, 100% = plants have died, 0% = like control plants
Source text: as §1

Setaria viridis [5] = assay: Pre-emergence herbicidal effect against SETVI; settings: 1280 g/ha, visual score after 3 weeks, 100% = plants have died, 0% = like control plants
Source text: as §1

[6] = system: Tripleurospermum inodorum; assay: Pre-emergence herbicidal effect against MATIN; settings: 1280 g/ha, visual score after 3 weeks, 100% = plants have died, 0% = like control plants
Source text: as §1

Stellaria media [7] = assay: Pre-emergence herbicidal effect against STEME; settings: 1280 g/ha, visual score after 3 weeks, 100% = plants have died, 0% = like control plants
Source text: as §1

Veronica persica [8] = assay: Pre-emergence herbicidal effect against VERPE; settings: 1280 g/ha, visual score after 3 weeks, 100% = plants have died, 0% = like control plants
Source text: as §1

Digitaria sanguinalis [9] = assay: Post-emergence herbicidal effect against DIGSA; settings: 1280 g/ha, visual score after about 3 weeks, 100% = plants have died, 0% = like control plants
Experimental: (§2) [table] 2. Post-emergence herbicidal effect and crop plant compatibility Seeds of monocotyledonous and dicotyledonous weed and crop plants are laid out in sandy loam soil in wood-fibre pots, covered with soil and cultivated in a greenhouse under good growth conditions. 2 to 3 weeks after sowing, the test plants are treated at the one-leaf stage. The compounds of the invention, formulated in the form of wettable powders (WP) or as emulsion concentrates (EC), are then sprayed onto the green parts of the plants as aqueous suspension or emulsion at a water application rate equating to 600 to 800 l/ha with addition of 0.2% wetting agent. After the test plants have been left to stand in the greenhouse under optimal growth conditions for about 3 weeks, the action of the preparations is assessed visually in comparison to untreated controls (herbicidal action in percent (%): 100% activity=the plants have died, 0% activity=like control plants).

Echinochloa crus-galli [10] = assay: Post-emergence herbicidal effect against ECHCG; settings: 1280 g/ha, visual score after about 3 weeks, 100% = plants have died, 0% = like control plants
Experimental: as §2

Poa annua [11] = assay: Post-emergence herbicidal effect against POAAN; settings: 1280 g/ha, visual assessment about 3 weeks after treatment, 100% = plants have died, 0% = like control plants
Experimental: as §2

Setaria viridis [12] = assay: Post-emergence herbicidal effect against SETVI; settings: 1280 g/ha, visual assessment about 3 weeks after treatment, 100% = plants have died, 0% = like control plants
Experimental: as §2

Abutylon threophrasti = assay: Post-emergence herbicidal effect against ABUTH; settings: 1280 g/ha, visual assessment about 3 weeks after treatment, 100% = plants have died, 0% = like control plants
Experimental: as §2

[13] = system: Tripleurospermum inodorum; assay: Post-emergence herbicidal effect against MATIN; settings: 1280 g/ha, visual assessment about 3 weeks after treatment, 100% = plants have died, 0% = like control plants
Experimental: as §2

Veronica persica [14] = assay: Post-emergence herbicidal effect against VERPE; settings: 1280 g/ha, visual assessment about 3 weeks after treatment, 100% = plants have died, 0% = like control plants
Experimental: as §2

Amaranthus retroflexus = assay: Pre-emergence herbicidal effect against AMARE; settings: 1280 g/ha, visual score after 3 weeks, 100% = plants have died, 0% = like control plants
Source text: as §1

Stellaria media [15] = assay: Post-emergence herbicidal effect against STEME; settings: 1280 g/ha, visual assessment about 3 weeks after treatment, 100% = plants have died, 0% = like control plants
Experimental: as §2

Alopecurus myosuroides [16] = assay: Post-emergence herbicidal effect against ALOMY; settings: 1280 g/ha, visual score after about 3 weeks, 100% = plants have died, 0% = like control plants
Experimental: as §2

Bassia scoparia = assay: Post-emergence herbicidal effect against KCHSC; settings: 1280 g/ha, visual assessment about 3 weeks after treatment, 100% = plants have died, 0% = like control plants
Experimental: as §2

In the case of `CCOC(=O)CSc1nn(-c2ccccc2F)c(-c2ccc(F)c(F)c2)c1C(F)(F)F` [Example I-018], the “Pre-emergence action against ALOMY” value (Alopecurus myosuroides [1]) is reported as 90%, the “Pre-emergence action against DIGSA” value (Digitaria sanguinalis [2]) is reported as 100% and the “Pre-emergence action against ECHCG” value (Echinochloa crus-galli [3]) is reported as 100%. For the same molecule, the “Pre-emergence action against LOLRI” value (Lolium rigidum) was 100%, the “Pre-emergence action against POAAN” value (Poa annua [4]) was 100% and the “Pre-emergence action against SETVI” value (Setaria viridis [5]) was 100%. The “Pre-emergence action against MATIN” value [6] was 100%, the “Pre-emergence action against STEME” value (Stellaria media [7]) was 100% and the “Pre-emergence action against VERPE” value (Veronica persica [8]) was 100%. The “Post-emergence action against DIGSA” value (Digitaria sanguinalis [9]) was 90%, the “Post-emergence action against ECHCG” value (Echinochloa crus-galli [10]) was 90% and the “Post-emergence action against POAAN” value (Poa annua [11]) was 100%. For the same molecule, the “Post-emergence action against SETVI” value (Setaria viridis [12]) was 100%, the “Post-emergence action against ABUTH” value (Abutylon threophrasti) was 90% and the “Post-emergence action against MATIN” value [13] was 90%. For the same molecule, the “Post-emergence action against VERPE” value (Veronica persica [14]) was 100%.

In the case of `O=C(O)CSc1nn(-c2ccccc2)c(-c2cncnc2)c1Br` [III-002], the “Pre-emergence action against DIGSA” value (Digitaria sanguinalis [2]) is reported as 100%, the “Pre-emergence action against ECHCG” value (Echinochloa crus-galli [3]) is reported as 100% and the “Pre-emergence action against POAAN” value (Poa annua [4]) is reported as 100%. The “Pre-emergence action against SETVI” value (Setaria viridis [5]) was 100%, the “Pre-emergence action against AMARE” value (Amaranthus retroflexus) was 100% and the “Pre-emergence action against MATIN” value [6] was 100%. The “Pre-emergence action against STEME” value (Stellaria media [7]) was 100%, the “Pre-emergence action against VERPE” value (Veronica persica [8]) was 100% and the “Post-emergence action against POAAN” value (Poa annua [11]) was 100%. The “Post-emergence action against MATIN” value [13] was 90%, the “Post-emergence action against STEME” value (Stellaria media [15]) was 90% and the “Post-emergence action against VERPE” value (Veronica persica [14]) was 100%.

With `Cc1cnsc1-c1c(Br)c(SCC(=O)O)nn1-c1ccccc1F` [Example V-002] the “Pre-emergence action against POAAN” value (Poa annua [4]) was 100%, the “Pre-emergence action against SETVI” value (Setaria viridis [5]) was 100% and the “Pre-emergence action against AMARE” value (Amaranthus retroflexus) was 100%. For the same molecule, the “Pre-emergence action against MATIN” value [6] was 100%.

For `O=C(O)CSc1nn(-c2ccccc2F)c(-c2ccc(F)c(F)c2)c1[N+](=O)[O-]` [Example I-024], the “Pre-emergence action against ALOMY” value (Alopecurus myosuroides [1]) was 90%, the “Pre-emergence action against DIGSA” value (Digitaria sanguinalis [2]) was 100% and the “Pre-emergence action against ECHCG” value (Echinochloa crus-galli [3]) was 90%. The “Pre-emergence action against LOLRI” value (Lolium rigidum) was 100%, the “Pre-emergence action against POAAN” value (Poa annua [4]) was 100% and the “Pre-emergence action against SETVI” value (Setaria viridis [5]) was 100%. The “Pre-emergence action against MATIN” value [6] was 100%, the “Pre-emergence action against STEME” value (Stellaria media [7]) was 100% and the “Pre-emergence action against VERPE” value (Veronica persica [8]) was 100%. The “Post-emergence action against ALOMY” value (Alopecurus myosuroides [16]) was 100%, the “Post-emergence action against DIGSA” value (Digitaria sanguinalis [9]) was 100% and the “Post-emergence action against ECHCG” value (Echinochloa crus-galli [10]) was 90%. For the same molecule, the “Post-emergence action against POAAN” value (Poa annua [11]) was 100%, the “Post-emergence action against SETVI” value (Setaria viridis [12]) was 100% and the “Post-emergence action against ABUTH” value (Abutylon threophrasti) was 90%. The “Post-emergence action against KCHSC” value (Bassia scoparia) was 90%, the “Post-emergence action against MATIN” value [13] was 100% and the “Post-emergence action against VERPE” value (Veronica persica [14]) was 100%.

In the case of `CCOC(=O)CSc1nn(-c2cc(F)ccc2F)c(-c2ccc(F)cc2)c1Br` [Example I-020], the “Pre-emergence action against ALOMY” value (Alopecurus myosuroides [1]) is reported as 90%, the “Pre-emergence action against DIGSA” value (Digitaria sanguinalis [2]) is reported as 100% and the “Pre-emergence action against LOLRI” value (Lolium rigidum) is reported as 100%. For the same molecule, the “Pre-emergence action against POAAN” value (Poa annua [4]) was 100%, the “Pre-emergence action against SETVI” value (Setaria viridis [5]) was 100% and the “Pre-emergence action against MATIN” value [6] was 100%. The “Pre-emergence action against STEME” value (Stellaria media [7]) was 100%, the “Pre-emergence action against VERPE” value (Veronica persica [8]) was 100% and the “Post-emergence action against ALOMY” value (Alopecurus myosuroides [16]) was 100%. The “Post-emergence action against DIGSA” value (Digitaria sanguinalis [9]) was 90%, the “Post-emergence action against ECHCG” value (Echinochloa crus-galli [10]) was 90% and the “Post-emergence action against POAAN” value (Poa annua [11]) was 90%. For the same molecule, the “Post-emergence action against SETVI” value (Setaria viridis [12]) was 90%, the “Post-emergence action against KCHSC” value (Bassia scoparia) was 90% and the “Post-emergence action against MATIN” value [13] was 90%. The “Post-emergence action against STEME” value (Stellaria media [15]) was 90% and the “Post-emergence action against VERPE” value (Veronica persica [14]) was 90%.

`COC(=O)CNC(=O)CSc1nn(-c2ccccc2F)c(-c2ccc(F)c(F)c2)c1Cl` [VII-001] was tested, and the “Pre-emergence action against ALOMY” value (Alopecurus myosuroides [1]) was 90%, the “Pre-emergence action against DIGSA” value (Digitaria sanguinalis [2]) was 100% and the “Pre-emergence action against LOLRI” value (Lolium rigidum) was 100%. For the same molecule, the “Pre-emergence action against POAAN” value (Poa annua [4]) was 100%, the “Pre-emergence action against SETVI” value (Setaria viridis [5]) was 100% and the “Pre-emergence action against MATIN” value [6] was 100%. The “Pre-emergence action against STEME” value (Stellaria media [7]) was 100%, the “Pre-emergence action against VERPE” value (Veronica persica [8]) was 100% and the “Post-emergence action against ALOMY” value (Alopecurus myosuroides [16]) was 100%. The “Post-emergence action against DIGSA” value (Digitaria sanguinalis [9]) was 100%, the “Post-emergence action against ECHCG” value (Echinochloa crus-galli [10]) was 100% and the “Post-emergence action against POAAN” value (Poa annua [11]) was 100%. The “Post-emergence action against SETVI” value (Setaria viridis [12]) was 90%, the “Post-emergence action against ABUTH” value (Abutylon threophrasti) was 90% and the “Post-emergence action against KCHSC” value (Bassia scoparia) was 90%. The “Post-emergence action against MATIN” value [13] was 90%, the “Post-emergence action against STEME” value (Stellaria media [15]) was 90% and the “Post-emergence action against VERPE” value (Veronica persica [14]) was 90%.
